# Data published in patent publication US20140199292A1, “COMPOSITIONS AND METHODS FOR INHIBITING TUMOR DEVELOPMENT CAUSED BY CHEMOTHERAPY INDUCED SENESCENCE” (INSERM (Institut National de la Sante et de la Recherche …, priority 2011, published 2014).
# Experiments:
# [1] = tested on: NF-kB; assay: NF-kB luciferase reporter assay in 501mel cells; assay type: cell-based, human
# Protocol: 501mel melanoma cells were transiently transfected as previously described using the lipofectamine reagent (Invitrogen) (Bertolotto et al. 1998). Briefly, cells were transiently transfected with 0.3 μg of NF-kB reporter construct and 0.05 μg pCMVbGal to control the variability in transfection efficiency. The transfection medium was changed 6 hours later and when indicated, cells were transfected as described above with 50 nM of siC or siMi and/or siIKK2 or were exposed to drugs. Cells were assayed for luciferase and b-galactosidase activities 48 hours later. Transfections were repeated at least three times.
# [2] = tested on: p65/RELA subunit of NF-kB; assay: Immunofluorescence of p65/RelA localization in melanoma cells; assay type: cell-based, human; conditions: for effect on NF-kB nuclear relocation by MITF-silencing: 3-AB 20 mM, sulfasalazine 500 μM
# Protocol: Melanoma cells seeded on glass coverslips in 12-well dishes, were transfected with siC or siMi. When indicated cells were exposed to TNFa (10 ng/ml). Ninety-six hours later, cells were fixed and permeabilized as previously described (Khaled et al. 2003) before being exposed to anti-MITF (Abcam), anti-p65/RelA (Santa Cruz biotechnology), 53BP1 (Bethyl Laboratories) and E-cadherin (BD Transduction Laboratories) antibodies. Cells were washed thrice with PBS, and then incubated for 1 hour with 1:1000 dilution anti-mouse or anti-rabbit Alexa Fluor 488 or Alexa Fluor 594 labeled secondary antibody (Invitrogen, San Diego, Calif., USA) and mounted using Gel/Mount (Biomeda corp., Foster City Calif.). Immunofluorescences were examined and photographed with a Zeiss Axiophot microscope equipped with epifluorescence illumination.
# [3] = tested on: IKK2, p53, PARP-1; assay: Western blot of 501mel cell extracts (IKK2, p53, poly-(ADP rybosyl)ation); assay type: cell-based, human
# Protocol: Western blots were carried out as previously described (Hilmi et al. 2008). Briefly, cell lysates (30 μg) were separated by SDS-PAGE, transferred on to a PVDF membrane and then exposed to the appropriate antibodies, anti-MITF (Abcam), anti-ERK2 (D-2 Santa Cruz biotechnology), anti-p53 (DO-1, Santa Cruz biotechnology), anti-PARP (Santa Cruz biotechnology), anti-IKK2 and anti-PARP (Cell Signaling Technology Inc.). Horseradish peroxidase-conjugated anti-rabbit or anti-mouse antibodies were from Dakopatts (Glostrup, Denmark). Proteins were visualized with the ECL system (Amersham). The western blots shown are representative of at least 3 independent experiments.
# [4] = tested on: CCL2; assay: CCL2 ELISA in supernatant of MCF7 cells; assay type: cell-based, human; set-up: CCL2 secretion of MCF7 cells: dose or concentration left out as unconfirmed; conditions: for effect on CCL2 secretion of H2O2-treated senescent MCF7 cells: sulfasalazine 500 μM, 3-AB 20 mM
# Description: CCL2 level in the supernatant of the different melanoma cell lines, in that of MCF7 cells or in that of 501mel cells transfected with siC or siMi for 96 hrs, in presence or absence of drugs, was quantified by ELISA (R&D systems). Results from two independent experiments were normalized to cell number and expressed as ng/ml/10^6 cells.
# [5] = tested on: 501mel cells; assay: Invasion assay, matrigel-coated modified Boyden chamber, naive 501mel cells; assay type: cell-based, human; conditions: recombinant CCL2 100 ng/ml as chemoattractant
# Protocol: (§1) Cell invasion was assessed using a modified Boyden chamber assay with […] pore filter inserts for 24-well plates (BD Bioscience). 501mel cells were seeded on the upper chamber of matrigel-coated trans-well and chemoattractants (conditioned media or recombinant molecules) placed into the lower chamber. Twenty-four hours later, cells adherent to the underside of the filters were fixed with 4% PFA, stained with 0.4% crystal violet and five random fields at ×20 magnification were counted. Results represent the average of triplicate samples from three independent experiments.
# [6] = tested on: 501mel human melanoma cells; assay: Senescence of 501mel melanoma cells (morphology, SA-b-Gal staining at pH6); assay type: cell-based; conditions: flattened and enlarged morphology, SA-b-Gal reactivity at pH6
# Protocol: (§2) 501mel human melanoma cells and MCF7 human breast cancer cells were grown in DMEM supplemented with 7% FBS at 37° C. in a humidified atmosphere containing 5% CO2. Lipofectamine™ RNAiMAX and opti-MEM medium were purchased from Invitrogen (San Diego, Calif., USA). TNFa and recombinant human CCL2 were from PeproTech Inc (Rocky Hill, N.J.), sulfasalazine and 3-AB from Sigma Chem. Co (St Louis, Mo.), mouse anti-CCL2 from R&D Systems and KU55933 from Calbiochem. The senescence b-galactosidase staining kit from Cell Signaling Technology (Beverly, Mass., USA) was used to histochemically detect b-galactosidase activity at pH6 as previously reported (Giuliano et al. 2010a). The percentage of means and standard deviations were derived from counting 100 cells in duplicate plates after 96 hrs.
# [7] = tested on: MCF7 human breast cancer cells; assay: Senescence, DNA damage and NF-kB activation of MCF7 cells; assay type: cell-based
# Protocol: as §2
# We next wondered if a similar PARP-1 and NF-kB-assiocated secretome (PNAS) could be observed in non-melanoma cells that have entered a program of senescence. […] Although CCL2 was not expected to be the major component of MCF7's secretome, CCL2 measurement was used as a readout of its formation. […] Together, our result reveal that PNAS during cellular senescence is a common mechanism that relies on activation of the DNA damages/NF-kB signaling cascade in both melanoma and non-melanoma cell lines.
# [8] = tested on: MCF7 cells; assay: Invasion assay, Boyden chamber, naive MCF7 cells; assay type: cell-based, human
# Protocol: (a) Conditioned media of control or senescent MCF7 (H2O2 treated) were added to the lower compartment of Boyden chambers to assess their chemotactic activity. Cells that had migrated to the underside of the upper compartment were stained 24 hrs later with crystal violet and the number of nuclei was counted using NIH-imageJ analysis software. Values represent mean+SD of three independent experiments. (b) ELISA test of CCL2 level in the conditioned media of control MCF7 or MCF7 incubated with H2O2 ([…]) and when indicated with sulfasalazine (500 μM) or 3-AB (20 mM). Data are represented as mean+SD.
# as §1
# [9] = tested on: MITF; conditions: Mhaidat et al. 2007; Liu et al. 2009; cited from earlier work
# [10] = 3-AB 20 mM, sulfasalazine 500 μM
compound,measurement,setting,value
"NC(=O)c1cccc(N)c1 [3-AB, 3-aminobenzamide]",effect on NF-kB transcriptional activity stimulated by oxidative stress and chemotherapeutic drugs,"[1]; 3-AB 20 mM, FMT 40 mM, TMZ 900 nM, H2O2 100 mM",prevented
same,effect on stimulation of NF-kB transcriptional activity by MITF-silencing,[1]; [10],no longer able
same,effect on NF-kB nuclear relocation by MITF-silencing,[2],no longer able to relocate NF-kB to the nucleus
same,effect on p53 up-regulation mediated by MITF silencing,[3]; western blot,almost completely abrogated
same,effect on CCL2 secretion of H2O2-treated senescent MCF7 cells,[4],impaired
"CCL2: recombinant human CCL2 from PeproTech, chemokine",invasive capability of naive 501mel cells,[5],stimulated the invasive capability
O=C(O)c1cc(/N=N/c2ccc(S(=O)(=O)Nc3ccccn3)cc2)ccc1O [sulfasalazine],effect on stimulation of NF-kB transcriptional activity by MITF-silencing,[1]; [10],no longer able
same,effect on activation of the NF-kB reporter gene by siMITF or TNFa,"[1]; sulfasalazine 500 μM, siIKK2 co-knockdown",prevented activation of the NF-kB reporter gene
same,effect on NF-kB nuclear relocation by MITF-silencing,[2],no longer able to relocate NF-kB to the nucleus
same,effect on IKK2 up-regulation mediated by MITF silencing,[3]; western blot,abrogated
same,effect on p53 up-regulation mediated by MITF silencing,[3]; western blot,modestly affected
same,effect on CCL2 secretion of H2O2-treated senescent MCF7 cells,[4],impaired
CCOP(=O)(OCC)C(C)NC(=O)N(CCCl)N=O (centres unmarked) [fotemustine],senescence of melanoma cells,[6],extended these findings
OO [H2O2],senescence of melanoma cells,[6],underwent premature senescence
same,poly-(ADP rybosyl)ation in melanoma cells,[3],increased poly-(ADP rybosyl)ation
same,DNA damage in MCF7 cells (gH2AX labeling),[7],DNA damage induction
same,NF-kB activity in MCF7 cells (nuclear localization of p65/RELA),[7],stimulation of NF-kB activity
same,senescence of MCF7 cells,"[7]; morphological changes, SA-b-galactosidase, p53 and p21",underwent senescence
same,invasion of naive MCF7 cells toward supernatant of treated (senescent) MCF7,[8],enhanced the invasion of naïve MCF7 cells
same,CCL2 secretion of MCF7 cells,[4]; H2O2,resulted in CCL2 secretion
same,MITF expression,[9],decreased the expression of MITF
TNFa,NF-kB transcriptional activity (luciferase reporter),"[1]; 501mel cells, TNFα 10 ng/ml, FMT 40 mM, TMZ 900 nM, H2O2 100 mM",up-regulated
same,cellular localization of p65/RELA,[2]; TNFa 10 ng/ml,p65 relocalized to the nucleus
